For the test, the target named is T1, α-L-iduronidase (IDUA) (Homo sapiens, UniProt P35475).
T1 sequence (P35475 28-653): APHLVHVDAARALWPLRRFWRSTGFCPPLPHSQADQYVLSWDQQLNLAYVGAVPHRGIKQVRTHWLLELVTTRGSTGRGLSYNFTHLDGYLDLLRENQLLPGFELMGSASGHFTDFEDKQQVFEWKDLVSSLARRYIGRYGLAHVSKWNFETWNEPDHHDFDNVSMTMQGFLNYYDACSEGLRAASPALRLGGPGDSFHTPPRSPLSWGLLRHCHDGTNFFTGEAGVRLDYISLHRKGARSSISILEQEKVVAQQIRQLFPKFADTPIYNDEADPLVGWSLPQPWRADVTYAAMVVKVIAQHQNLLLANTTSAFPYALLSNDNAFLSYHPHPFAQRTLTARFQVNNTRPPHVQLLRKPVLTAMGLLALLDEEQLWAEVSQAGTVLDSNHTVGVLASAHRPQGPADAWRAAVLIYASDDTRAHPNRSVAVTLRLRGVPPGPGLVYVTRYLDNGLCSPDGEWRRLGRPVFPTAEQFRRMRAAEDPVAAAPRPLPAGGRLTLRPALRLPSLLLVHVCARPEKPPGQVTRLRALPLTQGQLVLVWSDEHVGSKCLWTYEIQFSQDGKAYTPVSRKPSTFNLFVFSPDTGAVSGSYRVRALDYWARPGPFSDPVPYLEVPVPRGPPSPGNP
Description: X-ray crystal structure. It counts as biochemical.

Take `O=C(O)[C@@H]1NC[C@H](O)[C@@H](O)[C@@H]1O` [IdoADNJ, [2R, 3R, 4R, 5S]-2-carboxy-3,4,5-trihydroxy-piperidine]: the IC50 was ~3 mM.

Usually IC50 stands for the concentration that inhibits the measured activity by half.

The values are drawn from paper PMC4954775 (Nature chemical biology, 2013).
